Assay results reported in patent US6828458B2, “Topical antiandrogen for hair loss and other hyperandrogenic conditions” (Biophysica, Inc., priority 2000, dated 2004).
Read-outs that look alike come from different tables or passages of the source.

Columns and labels:
Androgen Receptor = target: T1, Androgen Receptor (Homo sapiens, UniProt P10275, T878A); assay: Androgen receptor remaining in LNCaP cells after incubation, Western Blot of lysate; format: cell-based; conditions: for Percent Androgen Receptor Remaining in LNCaP Cells: 48 hrs. incubation
T1 construct: endogenous in cells; host or cells: LNCaP cells
T1 sequence (P10275 1-920 T878A): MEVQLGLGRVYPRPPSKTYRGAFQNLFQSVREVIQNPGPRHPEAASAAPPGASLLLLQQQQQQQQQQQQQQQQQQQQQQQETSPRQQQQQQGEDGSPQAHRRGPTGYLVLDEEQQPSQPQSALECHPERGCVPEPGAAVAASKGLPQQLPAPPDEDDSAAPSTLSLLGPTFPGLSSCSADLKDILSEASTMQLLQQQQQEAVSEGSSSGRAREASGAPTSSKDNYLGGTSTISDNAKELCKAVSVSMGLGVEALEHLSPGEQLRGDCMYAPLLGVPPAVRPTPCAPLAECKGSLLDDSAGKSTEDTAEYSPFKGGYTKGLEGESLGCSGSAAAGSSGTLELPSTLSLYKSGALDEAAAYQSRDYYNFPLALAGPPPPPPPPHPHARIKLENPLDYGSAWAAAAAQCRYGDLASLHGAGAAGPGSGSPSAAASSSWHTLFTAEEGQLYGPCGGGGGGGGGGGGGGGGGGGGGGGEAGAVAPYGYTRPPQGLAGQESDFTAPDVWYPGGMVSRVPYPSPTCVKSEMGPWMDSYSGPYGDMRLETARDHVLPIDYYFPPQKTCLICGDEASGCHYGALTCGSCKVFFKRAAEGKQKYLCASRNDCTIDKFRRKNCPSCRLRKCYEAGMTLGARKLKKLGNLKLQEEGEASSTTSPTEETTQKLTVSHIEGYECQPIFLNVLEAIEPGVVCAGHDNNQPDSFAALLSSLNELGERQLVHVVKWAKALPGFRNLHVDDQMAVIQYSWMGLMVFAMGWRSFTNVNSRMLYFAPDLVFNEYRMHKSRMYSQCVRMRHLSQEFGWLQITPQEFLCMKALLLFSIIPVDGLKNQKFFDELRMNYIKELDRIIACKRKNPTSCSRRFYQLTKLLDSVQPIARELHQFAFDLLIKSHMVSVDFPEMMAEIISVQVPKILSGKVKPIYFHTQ
Protocol: The interaction of BP-766 with androgenic receptors was studied by incubation with LNCaP cells, (known to contain human AR), subsequent cell lysis and the Western Blot assay to identify and quantify the androgenic receptors protein.

[1] = Cutaneous absorption in rabbits, serum analyzed by HPLC; format: in vivo, rabbit; conditions: BP-766 topical twice daily (0.6 mg/kg-day) for ten days, limit of detection approximately 10 ng/ml
Protocol: (§1) BP-766 was applied topically twice daily to simulate the intended human application (0.6 mg/kg-day), on the two 10 cm^2 separate areas of a closely shaved skin of four rabbits, for ten days. One ml blood samples were collected at 2, 5 and 21 hours after the first application, and once every other day thereafter. Serum was analyzed by HPLC. Using spiked and blank serum samples and a linearity determination, the limits of detection of BP-766 and/or BP-34 were established as approximately 10 ng/ml. […] The cutaneous absorption in rabbits is known to be about 5 to 6 times greater than in humans (Marzulic, F. N. and Maibach, H.: Dermatotoxicology, 5th Edition, Taylor & Frasier, Washington, D.C. 1966) so that even with the detection limits of this method, only trace amounts could ever be expected in humans.

mice [2] = assay: Systemic toxicity by intraperitoneal injections in mice; format: in vivo, mouse
Protocol: (§2) The systemic toxicity of BP-766 was orientationally evaluated by multiple intraperitoneal (i.p.) injections in mice. […] […] The murine maximum tolerated dose (MTD) was approximately 300 mg/kg.

[3] = Accelerated shelf stability of formulated solutions, HPLC; format: physicochemical; conditions: for BP-766 remaining: anhydrous isopropanol
From the text: (Table 3). […] (Connors, Kenneth A; Amidon, Gordon L.; Stella, Valentino J. Chemical Stability of Pharmaceuticals—A Handbook for Pharmacists. Second Edition, 1986, John Wiley & Sons)

[4] = Biodegradation in human serum, HPLC; format: in vitro ADME; conditions: 38° C., 0.5 mg/ml
Protocol: BP-766 was tested for degradation by incubation with human serum at 38° C., at a concentration of 0.5 mg/ml. It would be desirable for safety that should BP-766 for any unexpected reason be resorbed from the skin, it should decompose into rapidly excretable non-toxic components. The only products of biodegradation of BP-766 are the precursor BP-34, and trifluoroacetic acid, which both have good biological tolerance. […] (Permadi, H; Lundgren, B; Andersson K; Sundberg C; DePierre J W. Effects of perfluoro fatty acids on peroxisome proliferation and mitochondrialsize in mouse liver: dose and time factors and effect of chain length. Xenobiotica, (1993) Vol 23, No. 7, pp. 761-70). Orientational toxicity of BP-34 is described further below.

Wistar rats = assay: Acute oral toxicity in Wistar rats; format: in vivo, rat; conditions: male and female
Protocol: (§3) Acute oral toxicity of BP-766 was determined in NMRI mice and Wistar rats.

rabbits [5] = assay: Skin irritation potential according to ISO 10 993-10; format: in vivo, rabbit
Protocol: BP-766 was also evaluated by an independent laboratory according to ISO 10 993-10, in rabbits. A single application of 0.5 ml as a 1% (m/v) solution in anhydrous isopropyl alcohol and/or the vehicle only was employed. The application site was covered in one group, and not covered in an other group, each consisting of six rabbits. […] Non-irritability was defined by an arbitrary index, ranging from 0 to 0.4.

rabbits [6] = assay: Cutaneous irritation observed daily in rabbits during ten-day topical application; format: in vivo, rabbit; conditions: topical twice daily for ten days
Protocol: as §1

[7] = tested on: volunteers with incipient androgenic effluvium and/or alopecia; assay: Topical treatment of volunteers with androgenic effluvium and/or alopecia; format: in vivo, human
[8] = Acute oral toxicity in NMRI mice; conditions: mouse, in vivo, probit analysis
Protocol: as §3

[9] = Systemic toxicity by intraperitoneal injections in mice; format: in vivo, mouse; conditions: mouse, in vivo, ip, i.p. injections, read-out: murine maximum tolerated dose (MTD)
Protocol: as §2

mice [10] = conditions: cited from earlier work

In the case of “4-nitro-3-trifluoromethyl-N-(2-hydroxy-2-methyl-3-amino [BP-34]”, the “effect on the androgenic receptors (in words)” value (Androgen Receptor) is reported as “had no effect on the androgenic receptors”, the “Percent Androgen Receptor Remaining in LNCaP Cells” value (“Percent Androgen Receptor Remaining” below) (Androgen Receptor; 3 μ Molar conc.) is reported as 97% and the “Percent Androgen Receptor Remaining” value (Androgen Receptor; 10 μ Molar conc.) is reported as 98%. For the same compound, the “BP-766 and/or BP-34 found in serum” value [1] was “No BP-766 or BP-34 was found in any of the samples”, the “murine maximum tolerated dose (MTD)” value (mice [2]; i.p. injections) was “approximately 250 mg/kg” and the mortality (mice [2]; i.p. injections of 100-300 mg/kg) was “no mortalities”. The morbidity / mortality (mice [2]; i.p., 300 mg/kg) was “Morbidity, but not mortality, was observed”.
In the case of `CC(O)(CNC(=O)C(F)(F)F)C(=O)Nc1ccc([N+](=O)[O-])c(C(F)(F)F)c1` (centres unmarked) [BP-766, 2-hydroxy-2-methyl-N-(4-nitro-3-(trifluoromethyl)phenyl)-3-(2,2,2-trifluoroacetylamino)propanamide], the “% BP-766” value ([3]; 60/40 EtOH/H2O, 55° C., 0 hours) is reported as 100%, the “% BP-766” value ([3]; 60/40 EtOH/H2O, 55° C., 24 hours) is reported as 99.1% and the “% BP-766” value ([3]; 60/40 EtOH/H2O, 55° C., 48 hours) is reported as 98.2%. For the same compound, the “% BP-766” value ([3]; 60/40 EtOH/H2O, RT, 0 hours) was 100%, the “% BP-766” value ([3]; 60/40 EtOH/H2O, RT, 24 hours) was 99.9% and the “% BP-766” value ([3]; 60/40 EtOH/H2O, RT, 48 hours) was 99.69%. For the same compound, the “% BP-766” value ([3]; Isopropanol (3-5% water), 55° C., 0 hours) was 100%, the “% BP-766” value ([3]; Isopropanol (3-5% water), 55° C., 6 hours) was 99.6% and the “% BP-766” value ([3]; Isopropanol (3-5% water), 55° C., 24 hours) was 99.1%. For the same compound, the “% BP-766” value ([3]; Isopropanol (3-5% water), 55° C., 144 hours) was 98.7%, the BP-766 remaining ([3]; 0 weeks) was 100% and the BP-766 remaining ([3]; 1 week) was 99.6%. For the same compound, the BP-766 remaining ([3]; 2 weeks) was 99.4%, the BP-766 remaining ([3]; 3 weeks) was 99.3% and the BP-766 remaining ([3]; 4 weeks) was 99.2%. It also gave a BP-766 remaining ([3]; 5 weeks) of 98.9%, a BP-766 remaining ([3]; 6 weeks) of 98.8% and a BP-766 remaining ([3]; 7 weeks) of 98.3%. For the same compound, the BP-766 remaining ([3]; 8 weeks) was 98.4%, the “% BP-766 remaining in human serum” value ([4]; 0 hours) was 100% and the “% BP-766 remaining in human serum” value ([4]; 6 hours) was 54.3%. For the same compound, the “% BP-766 remaining in human serum” value ([4]; 24 hours) was 10.9%, the “% BP-766 remaining in human serum” value ([4]; 48 hours) was “Traces” and the LD50 (Wistar rats) was “greater than 2500 mg/kg body weight”. For the same compound, the skin irritation potential (rabbits [5]) was “no skin irritation potential was found”, the “signs of cutaneous irritation” value (rabbits [6]) was “none was detected” and the dermal irritation ([7]; six volunteers, 2% solution in anhydrous isopropanol, 1 ml twice daily on the scalp, 8 weeks) was “no dermal irritation”. For the same compound, the “effluvium of the frontal hairline” value ([7]; six volunteers, 2% solution, 1 ml twice daily, after 2 weeks) was “arrested the effluvium of the frontal hairline in all six volunteers”, the hair regrowth ([7]; two volunteers, after 4 months use) was “an evident regrowth was observed” and the LD50 ([8]; female NMRI mice) was 2230 mg/kg. For the same compound, the LD50 ([8]; male NMRI mice) was 2870 mg/kg, the MTD at 7 days [9] was roughly 300 mg/kg and the “LD50 (daily dose for seven days that resulted in 50% mortality)” value (mice [2]; i.p., daily for seven days) was 450 mg/kg bw.
For `CC(C)(O)C(=O)Nc1ccc([N+](=O)[O-])c(C(F)(F)F)c1` [Hydroxyflutamide, reference compound], the “Percent Androgen Receptor Remaining” value (Androgen Receptor; 3 μ Molar conc.) was 98%, the “Percent Androgen Receptor Remaining” value (Androgen Receptor; 10 μ Molar conc.) was 94% and the “effect on the androgenic receptors (in words)” value (Androgen Receptor; any concentration, after 48 hrs.) was “did not a affect the androgenic receptors significantly”.
In the case of `O=C(O)C(F)(F)F` [trifluoroacetic acid], the “toxicity when fed to mice” value (mice [10]) is given as “showed no toxicity”.
